In brackets after ≈: the same amount, converted by molar mass.
Columns and labels:
Assay in all cases: Antifungal susceptibility, MIC by broth macro-dilution method
C. albicans (ATCC 24433) = assay type: cell-based, Candida albicans; details: Candida albicans, ATCC24433, RPMI 1640 medium with MOPS buffer, end points after 48 hours, NI till x = no inhibition up to x, read-out: MIC against fungi, C. albicans (ATCC 24433)
Description: (§1) In vitro evaluation of antifungal activity was performed by determining the minimum inhibitory concentration (MIC). Anti-fungal susceptibility testing of these anti-fungal compounds was done by broth dilution method using RPMI 1640 medium with MOPS buffer. Known anti-fungal agents like fluconazole and amphotericin-B were used as positive control. End points were determined after 48 hours visually and by using spectrophotometer wherever necessary. Different dilutions were, tried and various sets of experiments performed.

A. niger (ATCC 16404) = assay type: cell-based, Aspergillus niger; details: Aspergillus niger, ATCC16404, RPMI 1640 medium with MOPS buffer, end points after 48 hours, NI till x = no inhibition up to x, read-out: MIC against fungi, A. niger (ATCC 16404)
Description: as §1

[1] = test system: F. proliferatum (ATCC 10052); assay type: cell-based, Fusarium proliferatum; details: Fusarium proliferatum, ATCC10052, RPMI 1640 medium with MOPS buffer, end points after 48 hours, NI till x = no inhibition up to x, read-out: MIC against fungi, F. proliferatum (ATCC 10052)
Description: as §1

| SMILES | MIC (C. albicans (ATCC 24433)) | MIC (A. niger (ATCC 16404)) | MIC [1] |
| --- | --- | --- | --- |
| CCCCCCCCCCc1cc2c(=O)n(CC(O)(Cn3cncn3)c3ccc(F)cc3F)cnc2s1 (stereo not drawn) [Compound 1-A16, 6-n-Decyl-3-[2-(2,4-difluorophenyl)-2-hydroxy-3-[1,2,4]triazol-1-yl-propyl]thieno[2,3-d]pyrimidin-4(3H)-one] | 1 to 2 µg/mL (≈ 1.89 to 3.78 µM) | > 2 µg/mL | > 2 µg/mL |
| O=c1c2c3c(sc2ncn1CC(O)(Cn1cncn1)c1ccc(F)cc1F)CCCC3 (stereo not drawn) [Compound 1-A09, 3-[2-(2,4-Difluorophenyl)-2-hydroxy-3-[1,2,4]-triazol-1-yl-propyl]-5,6,7,8-tetrahydrobenzothieno[2,3-d]pyrimidin-4(3H)-one] | 0.25 to 0.5 µg/mL (≈ 0.564 to 1.13 µM) | > 8 µg/mL | > 8 µg/mL |
